This is an account of results in patent US20210253598A1, “ARYL ANNULATED MACROCYCLIC INDOLE DERIVATIVES” (priority 2017, published 2021).

Series [1] relates to SUDHL10. Description: Induction of caspase-3/7 activity in SUDHL10 cells (Assay 4). Type of series: cell-based. The gist of the method: (§1)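 Luminescent Caspase-Glo 3/7 read-out in SUDHL5 and SUDHL10 cells after 3 h compound exposure at 37 °C, followed by 1 h reagent incubation.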
Series [2] has as its target MCL-1 (Homo sapiens, UniProt Q07820, K194A/K197A/R201A). Nature of the series: Protein-protein interaction assay MCL-1/Noxa BH3 peptide, TR-FRET (MCL-1 assay, Assay 1). Type of series: binding. Conditions: MBP-MCL-1 / Noxa BH3 peptide. The gist of the method:
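TR-FRET competition between compounds and a biotin-PEG Noxa BH3 tracer for 1 nM MBP-MCL-1 (residues 173-321). Incubation was 1 h at 22 °C in the dark, then overnight at 4 °C, in 50 mM Tris pH 7 buffer with KF and DTT, after a 10-min compound pre-equilibration. Normalized ratios were fitted with a 4-parameter Hill equation to give IC50.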
For orientation: TR-FRET usually uses a lanthanide donor and a delayed reading to cut background.

In series [3] the test system is SUDHL5. Nature of the series: Induction of caspase-3/7 activity in SUDHL5 cells (Assay 4). It counts as cell-based. The gist of the method: as §1
For series [4], the system named is SUDHL5. Description: Induction of cytotoxicity in SUDHL5 cells, CellTiter-Glo (Assay 6). To be noted: SUDHL5, 5 hours incubation, median, read-out: Cytotox SUDHL5 [M] (median). Type of series: cell-based. Put shortly: (§2)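 Run alongside apoptosis assays, this cytotoxicity measure used a 5-hour compound incubation at 37° C in humidified conditions, following overnight attachment. Cell viability was quantified by CellTiter-Glo luminescence.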
(In ATP-based viability assays light output follows the ATP content of the culture.)

The test system of series [5] is SUDHL10. Nature of the series: Induction of cytotoxicity in SUDHL10 cells, CellTiter-Glo (Assay 6). It counts as cell-based. Conditions: SUDHL10, 5 hours incubation, median, read-out: Cytotox SUDHL10 [M] (median). Put shortly:
as §2

The mark [6] stands for this setting: SUDHL10, 3 hours treatment, Caspase-Glo 3/7, median, read-out: Caspase SUDHL10 [M] (median).
[7] abbreviates: median, read-out: MCL-1 Assay [M] (median).
The mark [8] stands for this setting: SUDHL5, 3 hours treatment, Caspase-Glo 3/7, median, read-out: Caspase SUDHL5 [M] (median).
Where [9] appears, read: Homo sapiens, SU-DHL10, 3 h, SUDHL10, 3 hours treatment, Caspase-Glo 3/7, median, read-out: Caspase SUDHL10 [M] (median).
Where [10] appears, read: Homo sapiens, SU-DHL-5, 3 h, SUDHL5, 3 hours treatment, Caspase-Glo 3/7, median, read-out: Caspase SUDHL5 [M] (median).
Where [11] appears, read: read-out: Caspase SUDHL10 [M] (median), SUDHL10, 3 hours treatment, Caspase-Glo 3/7.
Where [12] appears, read: read-out: Caspase SUDHL5 [M] (median), SUDHL5, 3 hours treatment, Caspase-Glo 3/7.

Where a name gives a salt, the structure may show the parent alone. Read-outs that look alike come from different tables or passages of the source.

MCL-1, sequence (Q07820 173-321 K194A/K197A/R201A, looked up): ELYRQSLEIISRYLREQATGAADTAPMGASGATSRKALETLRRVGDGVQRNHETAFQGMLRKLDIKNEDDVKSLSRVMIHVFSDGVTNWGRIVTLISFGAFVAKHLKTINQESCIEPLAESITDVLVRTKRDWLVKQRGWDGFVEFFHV

`CCc1nn(C)c2c1-c1c(Cl)ccc3c(CCCOc4cccc5cc(F)ccc45)c(C(=O)O)n(c13)Cc1ccccc1COC2` (single isomer, unassigned; enantiomer 1) [Example 58, (+)-3-Chloro-4-ethyl-17-{3-[(6-fluoronaphthalen-1-yl)oxy]propyl}-6-methyl-6,7,9,14-tetrahydro-indolo[7,1-fg]pyrazolo[3,4-d][2,8]benzoxazacycloundecine-16-carboxylic acid-N-ethylethanamine Salt (Enantiomer 1)]: the results for the EC50 in series [1] (setting [6]) and in series [3] (setting [8]) were 2.1e-06 M and 8e-07 M, respectively. For the same molecule, the IC50 was 2.6e-09 M in series [2] (setting [7]), 8.1e-07 M in series [4] and 2.6e-06 M in series [5].

As for `Cc1c2c(nn1C)COCc1ncccc1Cn1c(C(=O)O)c(CCCOc3cccc4ccccc34)c3cccc-2c31` (single isomer, unassigned; enantiomer 1) [Example 8, 4,5-Dimethyl-17-[3-(naphthalen-1-yloxy)propyl]-5,7,9,14-tetrahydropyrazolo[4′,3′:9,10]-pyrido[2′,3′:3,4][1,6]oxazacycloundecino[8,7,6-hi]indole-16-carboxylic acid-N-ethylethanamine Salt (Enantiomer 1)], the EC50 was 9.9e-06 M in series [1] (setting [6]) and 2.5e-06 M in series [3] (setting [8]). The IC50 in series [2] (MCL-1 Assay [M] (median)) amounted to 1.5e-09 M; in series [4], 3e-06 M; in series [5], 7.2e-06 M.

As for `Cc1c2c(nn1C)COCc1ccccc1Cn1c(C(=O)O)c(CCCOc3cccc4cc(F)ccc34)c3ccc(Cl)c-2c31` (single isomer, unassigned; enantiomer 1) [Example 49, (−)-3-Chloro-17-{3-[(6-fluoronaphthalen-1-yl)oxy]propyl}-4,5-dimethyl-5,7,9,14-tetrahydroindolo[7,1-fg]pyrazolo[3,4-d][2,8]benzoxazacycloundecine-16-carboxylic acid-N-ethylethanamine Salt (Enantiomer 1)], the EC50 in series [1] (setting [9]) turned out to be 2.1e-06 M; in series [3] (setting [10]), 7.7e-07 M. Also, the IC50 worked out at 4.7e-10 M in series [2] (MCL-1 Assay [M] (median)); 8.8e-07 M in series [4] (Homo sapiens, SU-DHL-5, 5 h); 1.6e-06 M in series [5] (Homo sapiens, SU-DHL10, 5 h).

In the case of `CCc1nn(CCN2CCOCC2)c2c1-c1c(Cl)ccc3c(CCCOc4cccc5cc(F)ccc45)c(C(=O)O)n(c13)Cc1ccccc1COC2` (single isomer, unassigned; enantiomer 1) [Example 52, (−)-3-Chloro-4-ethyl-17-{3-[(6-fluoronaphthalen-1-yl)oxy]propyl}-6-[2-(morpholin-4-yl)ethyl]-6,7,9,14-tetrahydroindolo[7,1-fg]pyrazolo[3,4-d][2,8]benzoxazacycloundecine-16-carboxylic Acid (Enantiomer 1)], the EC50 in series [1] (setting [6]) was 7.1e-07 M; in series [3] (setting [8]), 4.9e-07 M. The IC50 amounted to 9.6e-10 M in series [2] (MCL-1 Assay [M] (median)), 5.2e-07 M in series [4] and 8.8e-07 M in series [5].

Turning to `Cc1c2c(nn1C)COCc1ccccc1Cn1c(C(=O)O)c(CCCOc3cccc4cc(F)ccc34)c3ccc(F)c-2c31` (single isomer, unassigned; enantiomer 1) [Example 65, (−)-3-fluoro-17-{3-[(6-fluoronaphthalen-1-yl)oxy]propyl}-4,5-dimethyl-5,7,9,14-tetrahydroindolo[7,1-fg]pyrazolo[3,4-d][2,8]benzoxazacycloundecine-16-carboxylic acid-N-ethylethanamine Salt (Enantiomer 1)], the results for the EC50 in series [1] (setting [9]) and in series [3] (setting [10]) were 2.1e-06 M and 8.1e-07 M, respectively. Also, the IC50 in series [2] (MCL-1 Assay [M] (median)) amounted to 1.3e-09 M; in series [4], 1e-06 M; in series [5], 2.1e-06 M.

As for `Cc1c2c(nn1C)COCc1ccccc1Cn1c(C(=O)O)c(CCCOc3cccc4ccccc34)c3ccc(Cl)c-2c31` (single isomer, unassigned; enantiomer 1) [Example 37, (−)-3-Chloro-4,5-dimethyl-17-[3-(naphthalen-1-yloxy)propyl]-5,7,9,14-tetrahydroindolo[7,1-fg]pyrazolo[3,4-d][2,8]benzoxazacycloundecine-16-carboxylic Acid (Enantiomer 1)], the EC50 in series [1] (setting [6]) is 2.5e-06 M; in series [3] (setting [8]), 8.4e-07 M. The figures for the IC50 in series [2] (MCL-1 Assay [M] (median)), in series [4] and in series [5] were 1.3e-09 M, 8.6e-07 M and 2.7e-06 M, respectively.

As for `Cc1c2c(nn1C)COCc1ccccc1Cn1c(C(=O)O)c(CCCOc3cccc4cc(F)ccc34)c3ccc(Cl)c-2c31` (single isomer, unassigned; enantiomer 2) [Example 50, (+)-3-Chloro-17-{3-[(6-fluoronaphthalen-1-yl)oxy]propyl}-4,5-dimethyl-5,7,9,14-tetrahydroindolo[7,1-fg]pyrazolo[3,4-d][2,8]benzoxazacycloundecine-16-carboxylic acid-N-ethylethanamine Salt (Enantiomer 2)], the values for the EC50 in series [1] (setting [6]) and in series [3] (setting [8]) were 3.2e-06 M and 7.3e-07 M, respectively. Further, the IC50 in series [2] (MCL-1 Assay [M] (median)) stood at 1.4e-09 M; in series [4], 9.3e-07 M; in series [5] it was 2.8e-06 M.

As to `CCc1c2c(nn1C)COCc1ccccc1Cn1c(C(=O)O)c(CCCOc3cccc4cc(F)ccc34)c3ccc(Cl)c-2c31` (single isomer, unassigned; enantiomer 1) [Example 55, (−)-3-Chloro-4-ethyl-17-{3-[(6-fluoronaphthalen-1-yl)oxy]propyl}-5-methyl-5,7,9,14-tetrahydro-indolo[7,1-fg]pyrazolo[3,4-d][2,8]benzoxazacycloundecine-16-carboxylic Acid N-ethylethanamine Salt (Enantiomer 1)], the EC50 in series [1] (setting [11]) was 8.7e-07 M; in series [3] (Homo sapiens, SU-DHL-5, 3 h, read-out: Caspase SUDHL5 [M] (median), SUDHL5, 3 hours treatment, Caspase-Glo 3/7) it was 6.6e-07 M. Besides, the IC50 in series [4] is 6.4e-07 M; in series [5] it was 1.3e-06 M.

Turning to `CCc1c2c(nn1C)COCc1ccccc1Cn1c(C(=O)O)c(CCCOc3cccc4cc(F)ccc34)c3ccc(Cl)c-2c31` (single isomer, unassigned; enantiomer 2) [Example 56, (+)-3-Chloro-4-ethyl-17-{3-[(6-fluoronaphthalen-1-yl)oxy]propyl}-5-methyl-5,7,9,14-tetrahydro-indolo[7,1-fg]pyrazolo[3,4-d][2,8]benzoxazacycloundecine-16-carboxylic Acid N-ethylethanamine Salt (Enantiomer 2)], the EC50 in series [1] (setting [11]) came out at 5.4e-06 M; in series [3] (setting [12]), 1.3e-06 M. In addition, the IC50 stood at 3.2e-09 M in series [2] (MCL-1 Assay [M] (median)), 1.6e-06 M in series [4] and 3.7e-06 M in series [5].

Consider `Cc1c2c(nn1C)COCc1ccccc1Cn1c(C(=O)O)c(CCCOc3cccc4ccccc34)c3ccc(F)c-2c31` (single isomer, unassigned; enantiomer 1) [Example 68, (−)-3-Fluoro-4,5-dimethyl-17-{3-[(naphthalen-1-yl)oxy]propyl}-5,7,9,14-tetrahydroindolo[7,1-fg]pyrazolo[3,4-d][2,8]benzoxazacycloundecine-16-carboxylic acid-N-ethylethanamine Salt (Enantiomer 1)], for which the EC50 in series [1] (setting [11]) was found to be 1.1e-05 M; in series [3] (setting [12]), 1.2e-06 M. For the same molecule, the IC50 in series [2] (MCL-1 Assay [M] (median)) is 3.2e-09 M; in series [4], 1.9e-06 M; in series [5] it was 4.6e-06 M.

Consider `CCNCC.Cc1c2c(nn1C)COCc1ncccc1Cn1c(C(=O)O)c(CCCOc3cccc4ccccc34)c3ccc(Cl)c-2c31` (single isomer, unassigned; enantiomer 1) [Example 43, 3-Chloro-4,5-dimethyl-17-[3-(naphthalen-1-yloxy)propyl]-5,7,9,14-tetrahydropyrazolo-[4′,3′:9,10]pyrido[2′,3′:3,4][1,6]oxazacycloundecino[8,7,6-hi]indole-16-carboxylic acid-N-ethylethanamine Salt (Enantiomer 1)], for which the EC50 came out at 3.7e-06 M in series [1] (setting [6]) and 1.2e-06 M in series [3] (setting [8]). For the same molecule, the IC50 turned out to be 5.1e-10 M in series [2] (setting [7]), 1.4e-06 M in series [4] and 2.9e-06 M in series [5].

Consider `Cc1c2c(nn1C)COCc1ccccc1Cn1c(C(=O)O)c(CCCOc3cccc4cc(F)ccc34)c3ccc(Cl)c-2c31` (racemic) [Example 48, (rac)-3-Chloro-17-{3-[(6-fluoronaphthalen-1-yl)oxy]propyl}-4,5-dimethyl-5,7,9,14-tetrahydroindolo[7,1-fg]pyrazolo[3,4-d][2,8]benzoxazacycloundecine-16-carboxylic Acid], for which the results for the EC50 in series [1] (setting [9]) and in series [3] (setting [10]) were 3.1e-06 M and 1.1e-06 M, respectively. The IC50 was 5.9e-10 M in series [2] (MCL-1 Assay [M] (median)); 1.4e-06 M in series [4] (Homo sapiens, SU-DHL-5, 5 h); 2.6e-06 M in series [5] (Homo sapiens, SU-DHL10, 5 h).
